biological target: T1, Melatonin receptor type 1B (Gallus gallus, UniProt P51050); test: Binding affinity measured against Chicken brain melatonin receptor by using 2-[125I]iodomelatonin as radioligand
T1 sequence (P51050 whole entry): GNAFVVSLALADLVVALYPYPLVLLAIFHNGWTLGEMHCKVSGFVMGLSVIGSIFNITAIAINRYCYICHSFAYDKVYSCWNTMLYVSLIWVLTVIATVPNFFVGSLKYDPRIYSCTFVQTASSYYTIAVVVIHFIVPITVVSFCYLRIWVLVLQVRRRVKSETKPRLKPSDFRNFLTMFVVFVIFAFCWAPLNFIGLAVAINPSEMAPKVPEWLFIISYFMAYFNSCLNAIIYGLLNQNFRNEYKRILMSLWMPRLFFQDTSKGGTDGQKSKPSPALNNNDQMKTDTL

Question: `COc1ccc2c(c1)C(CNC(C)=O)CC2` (configuration not stated) was tested. Which Ki did it give?
Answer: 0.077 µM

Question: With `CCCC(=O)NCC1CCCc2ccc(OC)cc21` (configuration not stated) as the compound, how does the Ki read?
Answer: 0.00045 µM

Question: `CCCC(=O)NCC1CCCCc2ccc(OC)cc21` (configuration not stated) was tested. Which Ki did it give?
Answer: 0.001 µM

Question: With `CCC(=O)NCC1CCCCc2ccc(OC)cc21` (configuration not stated) as the compound, how does the Ki read?
Answer: 0.029 µM

Question: Which Ki does the source give for `CCCC(=O)NCC1Cc2ccc(OC)cc21` (configuration not stated) here?
Answer: 0.049 µM

Question: `COc1ccc2c(c1)C(CNC(C)=O)CCC2` (configuration not stated) was tested. Which Ki did it give?
Answer: 0.004 µM

Question: For `CCCC(=O)NCC1CCc2ccc(OC)cc21` (configuration not stated), which Ki is on record?
Answer: 0.0076 µM

Question: With `CCC(=O)NCC1Cc2ccc(OC)cc21` (configuration not stated) as the compound, how does the Ki read?
Answer: 0.04 µM

Question: For `COc1ccc2c(c1)C(CNC(C)=O)CCCC2` (configuration not stated), which Ki is on record?
Answer: 0.034 µM

Question: For `COc1ccc2c(c1)C(CNC(C)=O)C2` (configuration not stated), which Ki is on record?
Answer: 0.224 µM

Question: `COc1cccc2c1CC(NC(C)=O)CC2` (configuration not stated) was tested. Which Ki did it give?
Answer: 0.161 µM

Question: Which Ki does the source give for `CCC(=O)NCC1CCc2ccc(OC)cc21` (racemic) here?
Answer: 0.016 µM

Question: How did the Ki turn out when `CCC(=O)NCC1CCCc2ccc(OC)cc21` (racemic) was run?
Answer: 0.00053 µM

Question: Which Ki does the source give for `CCC(=O)NCC1CCc2ccc(OC)cc21` (single isomer, unassigned; (+)) here?
Answer: 0.003 µM

Question: With `CCC(=O)NCC1CCCc2ccc(OC)cc21` (single isomer, unassigned; (+)) as the compound, how does the Ki read?
Answer: 0.00045 µM

Question: For `CCC(=O)NCC1CCc2ccc(OC)cc21` (single isomer, unassigned; (-)), which Ki is on record?
Answer: 0.456 µM

Question: `CCC(=O)NCC1CCCc2ccc(OC)cc21` (single isomer, unassigned; (-)) was tested. Which Ki did it give?
Answer: > 1 µM

Reference: ChEMBL document CHEMBL1131354 (Bioorg Med Chem Lett, 1998)
